How the values were obtained:
HIF-1α [1] = assay: HIF-1α level in hypoxic Hela cells (immunofluorescence imaging, Western blot); type: cell-based, human
Method: (§1) HeLa, Hek293T, MDA-MB-231, 4T1 or B16F10 cells (1.5×10^6 cells/mL) were treated with J266 (10 μM) for 6 h before incubating with JQ1-CBT at the indicated concentrations and time. This entire incubation was performed in normoxia condition. For NTR-moiety caged JW4, the cells were treated with JW4 (10 μM) 6 h prior to the addition of JQ1-CBT for a subsequent 12 h, and was performed entirely under hypoxic condition. Comparison of the downstream effect between the controls and drug-treated cells were completely executed in hypoxic condition. To work up, the cells were washed with cold PBS (pH 7.4) twice, and lysed with RIPA buffer supplemented with protease inhibitor cocktail and phosphatase inhibitor cocktail for 10 min at 4° C. Then, the lysed cells were collected and centrifuged at 13,500 rpm for 20 min at 4° C. The supernatant was collected and the protein concentration was analyzed by NanoDrop™ 2000/2000c Spectrophotometers. The lysate volumes were fine-tuned and loaded onto a Mini-PROTEAN® TGX™ 4-20% Precast Gel and was separated by SDS-PAGE. Then, the gel was transferred onto a PVDF membrane (100 V, 90 min, 4° C.), washed with TBS-T twice, and blocked with 1% BSA for 1 h at r.t. Next, the membrane was incubated with primary antibody overnight at 4° C., washed thrice with TBS-T, followed by incubation with goat anti-rabbit IgG (H+L) Secondary Antibody, HRP for 1 h. The membrane was supplemented with Radiance Q chemiluminescent ECL substrate and visualized using Amersham™ ImageQuant™ 800 biomolecular imager. B-Tubulin was used as the internal control.
Hela cells were plated at a density of 8×10^4 cells/mL in each well of the eight-well ibidi dishes before experiment. To sustain the hypoxia-induced factor throughout the drug treatment process, drug incubation was performed entirely in hypoxic chamber. […] The fluorescence of the alleviated HIF-1α expression upon drug treatment was visualized with Carl Zeiss LSM 800 microscopes (Hoechst 33258: Ex=405 nm, Em=460/50 nm; Alexa Fluor 488: Ex=488 nm, Em=515/30 nm; Alexa Fluor 594: Ex=561 nm, Em=617/20 nm).

c-Myc = c-Myc level in B16F10 tumour lysates of mice (Western blot); type: in vivo, mouse; details: intratumoral 5 mg/kg every 4 h up to 8 h
Method: (§2) B16F10 cells at a density of 2×10^6 cells were injected subcutaneously into the right flank of six- to eight-week-old mice. Once the tumours became palpable, intratumoral injection of the buffer solution as vehicle, JQ1, and JW4 and JQ1-CBT at dosage of 5 mg/kg were performed for every 4 h up to 8 h. The mice were sacrificed and protein extraction were carried out. The protein levels in lysis samples were analysed by western blot by following the protocol in Example 12. Histology and immunofluorescence staining were performed by following the protocol in Example 13. Specifically, the resected tumours were fixed in 4% paraformaldehyde for 48 h, washed with PBS, and gradually transferred to 15% sucrose, followed by 30% sucrose before being embedded in O.C.T. compound. Five-micrometre cryosections of the tumour samples were dehydrated and blocked with a blocking buffer containing 2% BSA, 1% Tween 20, 3% Triton X, and horse serum for an hour before being incubated with primary antibodies, followed by a washing step and then incubation with secondary antibodies. The primary antibodies used were Ki67 and CD31. […] Images were captured using the EVOS M5000 imaging system (Thermo Fischer Scientific, Waltham, MA, USA) and quantified using ImageJ.

B16F10 mouse melanoma = assay: Antitumour efficacy in B16F10 tumour bearing C57BL/6J mice; type: in vivo; details: daily treatment, 5 days, vs vehicle
zebrafish larvae = assay: Vascularization of vhl mutant and wide type zebrafish larvae (confocal imaging); type: in vivo; details: vhl^hu2117 crosses, 10 μM; non-treatment approximately one quarter
Method: Vasculature zebrafishes were obtained from natural crosses of the AB wild-type strain or vhl^+/hu2117 carriers on the fli1a:egfp^y1 transgenic background (which fluorescently marks the vasculature). JW4 and JQ1-CBT were dissolved in DMSO and the mixture was applied to embryos at equimolar concentration of 10 μM, with J252 (10 μM) and JQ1 (10 μM) used for the control experiments. […] The vascular plexus was imaged on a Zeiss LSM800 confocal microscope. Green: blood vessel tracker, .ex: 488 nm, .em: 520/30 nm; red: . ex: 564 nm, .em: 610/30 nm.

HIF-1α [2] = assay: HIF-1α level in B16F10 tumour lysates of mice (Western blot); type: in vivo, mouse; details: intratumoral 5 mg/kg every 4 h up to 8 h
Method: as §2

BRD4 = target: T1, BRD4 (Mus musculus, UniProt Q9ESU6); assay: BRD4 level in B16F10 tumour lysates of mice (Western blot); type: in vivo; details: intratumoral 5 mg/kg every 4 h up to 8 h
T1 construct: from tissue; host or cells: B16F10 tumour in C57BL/6J mice, tumour lysate
Text: We further investigated the feasibility of tumour microenvironment-activatable epigenetic BRD4 protein degradation and further validated the potential anti-tumour efficacy of ENCTAC in a C57BL/6J mice model. Typically, we implanted B16F10 mouse melanoma cell line into the right flank of living mice and the solid tumour was monitored to grow until palpable size before undergoing targeted protein disruption and therapeutic studies (FIG. 24a). The living mice bearing tumours were first subject to NTR-Cy7, a reported NTR enzyme responsive probe molecule (Li, Y. et al., J. Am. Chem. Soc. 2015, 137, 6407-[…]), followed by animal imaging scanning.
B16F10 cells at a density of 2×10^6 cells were injected subcutaneously into the right flank of six- to eight-week-old mice. Once the tumours became palpable, intratumoral injection of the buffer solution as vehicle, JQ1, and JW4 and JQ1-CBT at dosage of 5 mg/kg were performed for every 4 h up to 8 h. The mice were sacrificed and protein extraction were carried out. The protein levels in lysis samples were analysed by western blot by following the protocol in Example 12. Histology and immunofluorescence staining were performed by following the protocol in Example 13. […] Images were captured using the EVOS M5000 imaging system (Thermo Fischer Scientific, Waltham, MA, USA) and quantified using ImageJ.

CA9 = CA9 level in hypoxic Hela cells (Western blot); type: cell-based, human
Method: as §1, with “The membrane was supplemented with Radiance Q chemiluminescent ECL substrate and visualized using Amersham™ ImageQuant™ 800 biomolecular imager. B-Tubulin was used as the internal control.” left out

With `Cc1sc2c(c1C)C(c1ccc(Cl)cc1)=N[C@@H](CC(=O)OC(C)(C)C)c1nnc(C)n1-2` [JQ1] the HIF-1α protein level (HIF-1α [1]) was “did not alter”, the “c-Myc expression in tumour” value (c-Myc) was “downgrade c-Myc expression” and the “tumour progression (serial volumetric measurement)” value (B16F10 mouse melanoma) was “reduced tumour growth”. For the same compound, the vascularized larvae (zebrafish larvae) was 21.3%, the “HIF-1α protein level in tumour” value (HIF-1α [2]) was “trivial effect” and the “BRD4 protein level in tumour” value (BRD4) was “trivial effect”. For the same compound, the CA9 amount (CA9) was “partially downgrade”.

Source: patent US20240239787A1, “COMPOUNDS FOR USE IN THE TREATMENT OF CANCER” (Nanyang Technological University, priority 2021, published 2024)
